Measurements reported in patent US6660255B1, “Inhibition of gene transcription by polyamide DNA-binding ligands” (California Institute of Technology, priority 1997, dated 2003).
pIC50, pKd: −log10 of the molar value. Read-outs that look alike come from different tables or passages of the source.

Experiments:
[1] = system: TBP binding to the TATA box region of the adenovirus major late promoter; assay: Gel mobility shift, TBP binding to adenovirus major late promoter TATA box; set-up: species or system human; conditions: mismatch flanking sequences
Method: (§1) Regions of polyamide protection were determined by analysis of the digestion products on a 6% denaturing polyacrylamide sequencing gel. Storage phosphorimage analysis of the data was used to obtain dissociation constants for the binding reactions (using Kodak Storage Phosphor Screens and a Molecular Dynamics SF PhosphorImager). Recombinant human TBP (rhTBP) was obtained from Promega and was used in footprinting and gel mobility shift experiments as recommended. The reaction mixtures also contained 100 ng of poly dG-poly dC per 10 μL gel shift reaction or 50 μL footprinting reaction. For gel mobility shift assays, 6% polyacrylamide gels (20:1, acrylamide to bisacrylamide) contained 44 mM Tris-borate, pH 8.3, 1 mM EDTA, […] and 0.02% (v/v) NP-40. The same buffer was used for electrophoresis of 1 mm thick gels at 15 volts/cm for 2 hours at 4° C.

[2] = system: 5′-TCGTCGA-3′ (reversed orientation match site); assay type: binding
HIV-1 strain WEAU1.6 = assay: HIV-1 replication in human PBMC, p24 ELISA; assay type: cell-based; conditions: mismatch controls, alone or in combination
Method: PBMC were infected with the T cell-tropic HIV-1 strain WEAU1.6, or the macrophage-tropic strain SF162. […] Polyamides were added to the culture medium and the levels of HIV-1 p24 viral capsid protein in the culture media were determined on subsequent days using a standard ELISA assay.
Human PBMC were separated from whole blood collected from normal adult volunteers by density gradient centrifugation as described. […] Human PBMC were activated with 2 μg/mL PHA and 20 units/mL of IL-2 for 2-3 days prior to HIV-1 infection. […] Free virus was removed by washing the cells in medium, and polyamides added to the culture. […] Virus replication in culture was measured by HIV-1 p24 viral capsid antigen ELISA (DuPont Medical Products, Boston, Mass.).
PBMC cultures were infected with the primary HIV-1 isolate WEAU 1.6 (kindly provided by G. Shaw), and virus replication measured by release of p24 capsid antigen into the medium that was detected by antibody-capture ELISA (Dupont). Each experiment involved a separate PBMC donor.

[3] = system: 5′-WGCWGCW-3′ sequences adjacent to the HIV-1 TATA element; assay: DNase I footprint titration at sites flanking the HIV-1 TATA element; assay type: binding
Method: The recognition sites for polyamide HIV-1 are of the form 5′-WGCWGCW-3″ (where W=A or T).
White, S., Baird, E. E. & Dervan, P. B. describes the pairing rules for recognition in the minor groove of DNA by pyrrole-imidazole polyamides. […] Labeled DNA was incubated with polyamide (45 minutes) and digested with DNase I under single-hit conditions.
as §1

[4] = system: HIV-1 promoter (LEF-1-activated transcription); assay: HIV-1 transcription in vitro, H9 cell extract supplemented with HeLa nuclear extract; assay type: biochemical; conditions: mismatch polyamide
Excerpt: Based on the-results described above, it was expected that polyamide inhibition of LEF-1 binding would inhibit LEF-1-dependent transcription in an appropriate in vitro assay system. […] The H9 cell extract was supplemented with the HeLa cell-derived nuclear extract in order to obtain high levels of transcription. The H9 cell extract stimulates HIV-1 transcription ˜2.5 to 3-fold over the level of transcription observed with the HeLa extract alone and immunodepletion of LEF-1 protein from the H9 extract abolishes this activated transcription.
The effects of polyamides 1 and 2 on HIV-1 transcription were tested in an in vitro transcription assay with a HeLa cell nuclear extract (FIG. 21A). The effects of the polyamides on basal transcription by RNA polymerase II was monitored with a nuclear extract prepared from HeLa cells (J. D. Dignam, P. L. Martin, B. S. Shastry, R. G. Roeder, Describe eukaryotic gene transcription with purified components Meth. Enzymol. 101, 582 (1983)). […] Whole cell extracts of H9 cells in log phase growth were prepared by hypotonic lysis and contained 20 mg/ml protein, as determined by the Bradford reaction. […]
The effects of polyamides 3 and 4 on HIV-1 transcription in an in vitro system consisting of a cell-free extract prepared from cultured human lymphoid H9 cells supplemented with HeLa cell extract were determined. […]

wild-type HIV-1 promoter = assay: HIV-1 transcription in vitro with lymphoid cell nuclear extract; assay type: biochemical; conditions: read-out: polyamide concentration for fifty percent inhibition of HIV-1 transcription
Method: The recognition sites for polyamide HIV-1 are of the form 5′-WGCWGCW-3″ (where W=A or T). Since a pyrrole-pyrrole pair can recognize either an A-T base pair or a T-A base pair, polyamide HIV-1 will recognize both the 5′ and 3′ flanking sequences of the HIV-1 TATA element. […] This concentration corresponds to only a 16-fold excess of polyamide over specific binding sites in the HIV-1 plasmid DNA (3 nM).

[5] = system: 5′-TGCTGCA-3′ (the HIV-1 target sequence); assay type: binding

How did the “inhibition of TBP binding to adenovirus major late promoter TATA box” value [1] turn out when `CN(C)CCCNC(=O)CCNC(=O)c1cc(NC(=O)c2nc(NC(=O)CCNC(=O)c3cc(NC(=O)c4nc(NC(=O)CCCNC(=O)c5cc(NC(=O)c6nc(NC(=O)CCNC(=O)c7cc(NC(=O)c8nccn8C)cn7C)cn6C)cn5C)cn4C)cn3C)cn2C)cn1C` [polyamide 4, ImPy-β-ImPy-γ-ImPy-β-ImPy-β-Dp] was run?
The value was “did not inhibit”.

And the “fold lower affinity for 5′-TCGTCGA-3′ than for 5′-TGCTGCA-3′” value [2]?
Its value is ~10 fold.

What about the “effect on the level of virus in the medium” value (HIV-1 strain WEAU1.6) of the same compound?
The value was “had no effect”.

And the Ka ([3]; HIV-1 TATA box region)?
Its Ka is 2e+10 M⁻¹.

What about the “fold reduced affinity relative to the match polyamide” value ([3]; mismatch control polyamide) of the same compound?
The value was 100 fold.

And the pKd ([3]; sites flanking the TATA element, 5′-AGCTGCA-3′ / 5′-TGCTGCA-3′, read-out: apparent/equilibrium dissociation constant (Kd))?
The pKd was 10.30.

And the “inhibition of HIV-1 transcription” value [4]?
Its value is “fails to inhibit”.

And the pIC50 (wild-type HIV-1 promoter)?
Its pIC50 is ~7.30.

What about the “Equilibrium association constants, 5′-aTGCTGCA-3′” value (“Equilibrium association constants” below) ([5]; Buffer A, 24° C.) of the same compound?
Its value is 1.5 × 10^10 (0.3) M^a.

What about the “Equilibrium association constants” value ([5]; Buffer A, 37° C.) of the same compound?
Its value is 8.4 × 10^9 (2.3) M^a.

And the “Equilibrium association constants” value ([5]; Buffer B (140 mM KCl, 10 mM NaCl, 1 mM MgCl2, 1 mM spermine pH 7.2), 24° C.)?
The value was 1.9 × 10^10 (0.6) M^a.

And the “Equilibrium association constants” value ([5]; Buffer B, 37° C.)?
Its value is 1.1 × 10^10 (0.2) M^a.

What about the “fold higher affinity relative to unlinked analog” value ([5]; polyamide 4 vs 8) of the same compound?
Its value is ~6000 fold.
